Legend:
Test in all cases: biochemical
Design in all cases: KINOMEscan active-site competition binding, percent of control (100 = no competition)
Conditions in all cases: competition binding, percent control
SNARK = target: T1, SNARK (Homo sapiens, UniProt Q9H093)
T1 construct: gene NUAK2

[1] = target: T2, RPS6KA4(Kin.Dom.2-C-terminal) (Homo sapiens, UniProt O75676)
T2 construct: Kin.Dom.2-C-terminal

PAK6 = PAK6 (Homo sapiens, UniProt Q9NQU5)
MAP4K5 = MAP4K5 (Homo sapiens, UniProt Q9Y4K4)
CAMK4 = CAMK4 (Homo sapiens, UniProt Q16566)
CAMK4, sequence (Q16566 whole entry): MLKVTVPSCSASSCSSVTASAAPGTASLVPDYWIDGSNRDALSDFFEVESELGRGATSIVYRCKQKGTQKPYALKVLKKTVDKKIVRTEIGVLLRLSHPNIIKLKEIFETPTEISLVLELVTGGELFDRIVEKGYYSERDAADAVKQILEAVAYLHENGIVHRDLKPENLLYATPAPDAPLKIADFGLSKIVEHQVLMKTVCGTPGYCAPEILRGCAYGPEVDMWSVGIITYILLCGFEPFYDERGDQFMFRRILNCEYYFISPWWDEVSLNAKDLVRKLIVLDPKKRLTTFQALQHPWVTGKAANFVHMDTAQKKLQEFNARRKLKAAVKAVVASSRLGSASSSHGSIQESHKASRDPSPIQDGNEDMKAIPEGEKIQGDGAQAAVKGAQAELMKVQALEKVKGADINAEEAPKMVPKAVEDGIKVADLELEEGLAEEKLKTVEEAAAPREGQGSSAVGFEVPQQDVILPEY

MINK = target: T3, MINK (Homo sapiens, UniProt Q8N4C8)
T3 construct: gene MINK1

PDGFRB = PDGFRB (Homo sapiens, UniProt P09619)
LATS1 = LATS1 (Homo sapiens, UniProt O95835)
ASK1 = target: T4, ASK1 (Homo sapiens, UniProt Q99683)
T4 construct: gene MAP3K5

RIOK3 = RIOK3 (Homo sapiens, UniProt O14730)
RIOK3, sequence (O14730 whole entry): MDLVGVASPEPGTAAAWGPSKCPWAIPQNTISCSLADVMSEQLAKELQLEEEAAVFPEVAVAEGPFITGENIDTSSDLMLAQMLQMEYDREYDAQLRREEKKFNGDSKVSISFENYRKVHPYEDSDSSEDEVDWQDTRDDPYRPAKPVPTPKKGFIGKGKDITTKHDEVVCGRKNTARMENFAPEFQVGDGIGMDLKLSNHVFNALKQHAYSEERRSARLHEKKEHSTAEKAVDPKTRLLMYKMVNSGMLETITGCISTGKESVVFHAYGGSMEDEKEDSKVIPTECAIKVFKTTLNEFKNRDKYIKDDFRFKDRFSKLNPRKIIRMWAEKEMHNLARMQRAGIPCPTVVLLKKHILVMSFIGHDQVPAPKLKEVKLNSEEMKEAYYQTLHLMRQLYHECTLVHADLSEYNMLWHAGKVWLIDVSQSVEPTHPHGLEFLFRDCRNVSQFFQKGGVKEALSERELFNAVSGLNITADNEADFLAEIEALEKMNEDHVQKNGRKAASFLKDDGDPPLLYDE

BRSK2 = BRSK2 (Homo sapiens, UniProt Q8IWQ3)
BRSK2, sequence (Q8IWQ3 whole entry): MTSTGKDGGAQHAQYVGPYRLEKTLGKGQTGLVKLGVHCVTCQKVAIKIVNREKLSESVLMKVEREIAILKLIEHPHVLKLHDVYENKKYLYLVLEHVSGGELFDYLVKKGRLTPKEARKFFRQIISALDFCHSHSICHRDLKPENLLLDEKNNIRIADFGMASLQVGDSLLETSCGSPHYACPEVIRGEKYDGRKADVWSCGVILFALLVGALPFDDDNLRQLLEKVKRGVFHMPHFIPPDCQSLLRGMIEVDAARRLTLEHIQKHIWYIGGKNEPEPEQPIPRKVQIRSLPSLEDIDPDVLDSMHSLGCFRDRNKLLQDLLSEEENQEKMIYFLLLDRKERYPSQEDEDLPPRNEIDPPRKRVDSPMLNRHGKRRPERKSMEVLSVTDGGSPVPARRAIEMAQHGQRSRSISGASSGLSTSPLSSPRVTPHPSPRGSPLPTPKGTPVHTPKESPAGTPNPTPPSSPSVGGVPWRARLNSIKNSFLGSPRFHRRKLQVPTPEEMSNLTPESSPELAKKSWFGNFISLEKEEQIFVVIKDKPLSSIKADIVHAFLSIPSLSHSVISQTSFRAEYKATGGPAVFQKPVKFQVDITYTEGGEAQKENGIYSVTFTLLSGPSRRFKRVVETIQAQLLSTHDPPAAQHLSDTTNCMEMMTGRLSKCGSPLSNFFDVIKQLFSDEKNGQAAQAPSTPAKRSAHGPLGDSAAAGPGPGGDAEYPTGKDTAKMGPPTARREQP

MAST1 = MAST1 (Homo sapiens, UniProt Q9Y2H9)
LTK = LTK (Homo sapiens, UniProt P29376)
ZAK = target: T5, ZAK (Homo sapiens, UniProt Q9NYL2)
T5 construct: gene MAP3K20
T5 sequence (Q9NYL2 whole entry): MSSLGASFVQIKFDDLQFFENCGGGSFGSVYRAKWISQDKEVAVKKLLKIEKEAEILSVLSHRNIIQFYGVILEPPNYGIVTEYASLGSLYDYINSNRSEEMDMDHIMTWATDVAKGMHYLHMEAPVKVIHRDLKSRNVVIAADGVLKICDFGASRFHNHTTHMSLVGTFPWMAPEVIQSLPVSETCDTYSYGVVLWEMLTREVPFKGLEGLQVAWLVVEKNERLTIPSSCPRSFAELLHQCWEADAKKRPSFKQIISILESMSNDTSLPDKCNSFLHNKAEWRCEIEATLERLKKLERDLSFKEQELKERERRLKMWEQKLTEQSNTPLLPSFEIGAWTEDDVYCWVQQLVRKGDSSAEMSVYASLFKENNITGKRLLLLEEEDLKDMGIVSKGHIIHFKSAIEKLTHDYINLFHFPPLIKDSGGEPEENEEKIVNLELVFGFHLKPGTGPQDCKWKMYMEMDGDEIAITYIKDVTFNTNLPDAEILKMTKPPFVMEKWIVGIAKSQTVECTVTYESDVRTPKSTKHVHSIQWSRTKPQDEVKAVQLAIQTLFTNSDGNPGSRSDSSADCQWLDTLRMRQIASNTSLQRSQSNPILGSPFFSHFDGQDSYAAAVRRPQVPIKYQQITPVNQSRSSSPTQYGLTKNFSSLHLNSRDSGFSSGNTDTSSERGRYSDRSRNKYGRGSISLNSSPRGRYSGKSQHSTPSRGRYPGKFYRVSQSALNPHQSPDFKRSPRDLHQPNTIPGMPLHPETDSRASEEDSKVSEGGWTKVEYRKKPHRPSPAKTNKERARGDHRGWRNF

NEK3 = NEK3 (Homo sapiens, UniProt P51956)
HIPK3 = HIPK3 (Homo sapiens, UniProt Q9H422)
GSK3A = GSK3A (Homo sapiens, UniProt P49840)
GSK3A, sequence (P49840 whole entry): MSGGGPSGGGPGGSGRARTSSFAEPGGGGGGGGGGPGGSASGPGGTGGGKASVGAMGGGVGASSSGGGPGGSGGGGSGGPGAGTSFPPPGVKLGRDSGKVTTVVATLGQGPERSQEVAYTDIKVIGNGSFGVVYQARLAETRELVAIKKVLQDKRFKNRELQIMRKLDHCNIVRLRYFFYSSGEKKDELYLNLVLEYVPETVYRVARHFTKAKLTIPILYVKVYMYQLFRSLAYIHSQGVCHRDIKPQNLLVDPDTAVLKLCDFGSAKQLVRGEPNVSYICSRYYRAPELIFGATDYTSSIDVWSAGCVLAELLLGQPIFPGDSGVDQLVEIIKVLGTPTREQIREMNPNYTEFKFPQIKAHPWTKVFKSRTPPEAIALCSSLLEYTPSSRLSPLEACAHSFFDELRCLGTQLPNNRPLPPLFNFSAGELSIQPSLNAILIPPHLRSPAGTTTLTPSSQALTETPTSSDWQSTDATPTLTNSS

CLK4 = CLK4 (Homo sapiens, UniProt Q9HAZ1)
CSNK1G2 = CSNK1G2 (Homo sapiens, UniProt P78368)
SgK110 = target: T6, SgK110 (Homo sapiens, UniProt P0C264)
T6 construct: gene SBK3
T6 sequence (P0C264 whole entry): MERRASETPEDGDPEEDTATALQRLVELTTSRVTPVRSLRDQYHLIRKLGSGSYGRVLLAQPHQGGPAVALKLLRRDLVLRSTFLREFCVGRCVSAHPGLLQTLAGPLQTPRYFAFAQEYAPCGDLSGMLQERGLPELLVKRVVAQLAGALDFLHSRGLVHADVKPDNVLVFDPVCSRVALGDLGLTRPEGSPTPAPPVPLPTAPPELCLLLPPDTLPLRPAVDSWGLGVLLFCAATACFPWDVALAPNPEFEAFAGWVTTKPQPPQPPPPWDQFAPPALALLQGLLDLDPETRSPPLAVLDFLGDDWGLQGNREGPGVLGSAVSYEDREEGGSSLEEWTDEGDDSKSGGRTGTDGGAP

BMX = BMX (Homo sapiens, UniProt P51813)
[2] = target: T7, TYK2(JH2domain-pseudokinase) (Homo sapiens, UniProt P29597)
T7 construct: JH2domain-pseudokinase

ASK2 = target: T8, ASK2 (Homo sapiens, UniProt O95382)
T8 construct: gene MAP3K6

MAP4K5, sequence (Q9Y4K4 whole entry): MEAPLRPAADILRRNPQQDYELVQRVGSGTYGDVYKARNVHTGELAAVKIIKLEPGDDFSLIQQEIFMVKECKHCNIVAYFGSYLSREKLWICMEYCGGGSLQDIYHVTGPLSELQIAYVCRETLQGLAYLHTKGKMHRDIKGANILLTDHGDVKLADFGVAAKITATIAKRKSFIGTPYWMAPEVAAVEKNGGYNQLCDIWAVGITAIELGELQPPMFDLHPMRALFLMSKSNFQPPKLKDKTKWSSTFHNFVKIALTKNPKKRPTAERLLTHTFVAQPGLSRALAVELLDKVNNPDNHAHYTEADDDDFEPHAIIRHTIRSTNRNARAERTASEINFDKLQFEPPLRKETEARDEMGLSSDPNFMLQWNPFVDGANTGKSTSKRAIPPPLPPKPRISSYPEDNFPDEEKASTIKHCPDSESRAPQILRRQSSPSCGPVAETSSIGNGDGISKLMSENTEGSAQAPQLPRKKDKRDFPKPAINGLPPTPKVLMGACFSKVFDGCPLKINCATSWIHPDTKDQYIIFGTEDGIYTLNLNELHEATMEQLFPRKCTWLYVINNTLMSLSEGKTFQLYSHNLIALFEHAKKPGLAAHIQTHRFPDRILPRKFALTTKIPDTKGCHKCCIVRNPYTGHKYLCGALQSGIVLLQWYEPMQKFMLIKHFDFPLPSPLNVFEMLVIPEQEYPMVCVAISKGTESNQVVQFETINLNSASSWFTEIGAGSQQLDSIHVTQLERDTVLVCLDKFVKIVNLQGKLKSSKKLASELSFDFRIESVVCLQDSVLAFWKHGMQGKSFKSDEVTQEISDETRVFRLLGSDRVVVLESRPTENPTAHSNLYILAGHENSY
T2 sequence (O75676 whole entry): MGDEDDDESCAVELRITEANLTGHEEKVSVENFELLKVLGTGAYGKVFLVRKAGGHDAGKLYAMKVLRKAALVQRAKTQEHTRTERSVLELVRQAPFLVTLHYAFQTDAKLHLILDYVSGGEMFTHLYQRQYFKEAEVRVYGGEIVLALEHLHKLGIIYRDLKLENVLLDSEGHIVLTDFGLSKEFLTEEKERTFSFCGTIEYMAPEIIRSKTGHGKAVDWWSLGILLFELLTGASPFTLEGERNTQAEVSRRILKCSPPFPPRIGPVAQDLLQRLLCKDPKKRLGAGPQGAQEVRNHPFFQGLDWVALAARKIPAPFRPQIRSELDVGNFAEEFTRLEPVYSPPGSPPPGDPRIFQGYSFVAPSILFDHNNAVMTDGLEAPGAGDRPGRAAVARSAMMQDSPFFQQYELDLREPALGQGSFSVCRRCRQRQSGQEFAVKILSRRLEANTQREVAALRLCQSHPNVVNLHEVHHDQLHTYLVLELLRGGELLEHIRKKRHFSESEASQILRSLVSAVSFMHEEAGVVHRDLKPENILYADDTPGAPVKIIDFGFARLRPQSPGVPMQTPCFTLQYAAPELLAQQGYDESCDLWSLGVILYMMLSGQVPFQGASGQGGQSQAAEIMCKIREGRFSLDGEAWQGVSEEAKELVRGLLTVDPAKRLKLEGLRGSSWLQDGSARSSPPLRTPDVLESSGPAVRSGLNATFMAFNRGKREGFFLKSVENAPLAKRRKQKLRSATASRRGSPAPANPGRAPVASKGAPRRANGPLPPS

| SMILES | remaining binding at 10 µM (SNARK) [%] | remaining binding at 10 µM [1] [%] | remaining binding at 10 µM (PAK6) [%] | remaining binding at 10 µM (MAP4K5) [%] | remaining binding at 10 µM (CAMK4) [%] | remaining binding at 10 µM (MINK) [%] | remaining binding at 10 µM (PDGFRB) [%] | remaining binding at 10 µM (LATS1) [%] | remaining binding at 10 µM (ASK1) [%] | remaining binding at 10 µM (RIOK3) [%] | remaining binding at 10 µM (BRSK2) [%] | remaining binding at 10 µM (MAST1) [%] | remaining binding at 10 µM (LTK) [%] | remaining binding at 10 µM (ZAK) [%] | remaining binding at 10 µM (NEK3) [%] | remaining binding at 10 µM (HIPK3) [%] | remaining binding at 10 µM (GSK3A) [%] | remaining binding at 10 µM (CLK4) [%] | remaining binding at 10 µM (CSNK1G2) [%] | remaining binding at 10 µM (SgK110) [%] | also measured |
| --- | --- | --- | --- | --- | --- | --- | --- | --- | --- | --- | --- | --- | --- | --- | --- | --- | --- | --- | --- | --- | --- |
| COc1ccc(-c2cnccc2-c2cnc(NC(=O)C(C)C)s2)c(C(F)(F)F)c1 [CRT0105446, N-{5-[3-(4-Methoxy-2-trifluoromethyl-phenyl)-pyridin-4-yl]-hiazol-2-yl}-isobutyramide] | 84 | 57 | 93 | 100 | 98 | 100 | 51 | 91 | 100 | 94 | 59 | 68 | 100 | 100 | 100 | 98 | 56 | 100 | 55 | 100 | remaining binding at 10 µM (BMX): 100%; remaining binding at 10 µM [2]: 100%; remaining binding at 10 µM (ASK2): 100% |
| Cc1ccc(-c2cnccc2-c2cnc(Nc3ccc(O)cc3)s2)c(Cl)c1 [CRT0105950, 4-{5-[3-(2-Chloro-4-methyl-phenyl)-pyridin-4-yl]-thiazol-2-ylamino}-phenol] | 31 | 72 | 38 | 32 | 90 | 13 | 1.6 | 23 | 100 | 66 | 33 | 84 | 100 | 9 | 88 | 69 | 32 | 1.6 | 30 | 25 | remaining binding at 10 µM (BMX): 81%; remaining binding at 10 µM [2]: 81%; remaining binding at 10 µM (ASK2): 100% |
